Values quoted from earlier work in patent US20240269083A1, “PROLONGED-RELEASE PHARMACEUTICAL COMPOSITION FOR ORAL ADMINISTRATION OF SULTIAME” (ADVICENNE, priority 2021, published 2024).

System: erythrocytes
Details: single doses of Ospolot, fasting, healthy subjects

affinity for erythrocytes: very strong affinity for erythrocytes
SMILES: NS(=O)(=O)c1ccc(N2CCCCS2(=O)=O)cc1 [sultiame, Sultiame]
